Experimental data from US7892767B2, “Phosphospecific chemokine receptor antibodies” (Washington University in St. Louis, priority 2005, dated 2011).

What was measured:
[1] = tested on: Nf1+/+ astrocytes; assay: Intracellular cAMP by ELISA, Nf1+/+ astrocytes; format: cell-based, mouse; conditions: 0.1 μg/ml CXCL12, 45-minute period
Method: cAMP measurements. cAMP was measured by ELISA (Cayman Chemical Company, Ann Arbor, Mich. or Assay Designs, Ann Arbor, Mich.). Briefly, astrocyte cultures were lysed in 0.1 N HCl. After the removal of cellular debris, soluble cellular extract was dried down and resuspended in EIA buffer. Experimental samples and cAMP standard curve were acetylated to increase the sensitivity of the assay and incubated with cAMP ACHe tracer and cAMP EIA anti-serum overnight at 4° C. according to the manufacturer's instructions. After extensive washing, bound antibody was measured by spectrophotometric analysis. Concentrations of cAMP were derived from comparison with standard curve according to manufacturer's instructions.
We evaluated the time dependent changes in intracellular cAMP in Nf1+/+ and Nf1−/− astrocytes after exposure to 0.1 μg/ml CXCL12. […] However, in Nf1+/+ astrocytes, intracellular levels of cAMP rapidly recovered to baseline and oscillated between baseline and 40% of baseline over the 45-minute experimental period (FIG. 10B).
We hypothesized that if cooperative signaling between Nf1 loss and CXCR4 activation promotes tumor formation through the suppression of cAMP, then agents that alter intracellular cAMP should modulate CXCL12 responses. We treated astrocytes with the adenylyl cyclase (AC) activator forskolin in the presence and absence of CXCL12. […] In these experiments, forskolin elevated intracellular cAMP levels in both Nf1+/+ and Nf1−/− astrocytes with peak values of 17.8+/−0.4 and 19.4+/−4.5 pmol/mg of protein, respectively, after 24 hours of treatment. The effect of forskolin was not abrogated by co-treatment with CXCL12. Under these conditions, cAMP levels were 17.9+/−2.5 and 10.4+/−5.8 pmol/mg of total protein in Nf1+/+ and Nf1−/− astrocytes, respectively. […] The effect of forskolin on CXCL12-mediated Nf1−/− apoptosis was evidenced by changes in the percentage of Nf1−/− astrocytes in the sub-G0 fraction of the cell cycle (FIG. 11B). Thus while astrocyte growth is dependent upon MEK and PI3 kinase activity, CXCL12-induced Nf1−/− astrocyte growth requires the suppression of intracellular cAMP levels.

[2] = tested on: astrocytes; assay: Cell number by trypan blue exclusion, primary astrocytes; format: cell-based, mouse; conditions: CXCL12 1 μg/ml, 24 hours
Method: Primary astrocyte cultures. Primary astrocytes were cultured from 1 to 3-day-old BALB/C mice as described (57). The cortices were triturated into single cells in minimal essential medium (Invitrogen) containing 10% FCS, and then plated onto 75 cm^2 T-flasks (0.5 hemisphere/flask) for 10-14 days. Astrocytes were prepared by vigorous shaking of T-flasks overnight, removal of non-adherent cells, and isolation of the remaining adherent cells, with 0.1% trypsin.
(§1) Growth factor and drug treatment. Following serum-starvation for 24 hours, astrocytes, granule cells, U87 cells and Daoy cells, were treated with 1 μg/ml CXCL12 (PeproTech), […] AMD3465 (kind gift from Simon Fricker, AnorMED, Langley, BC, Canada) (200 μM Rolipram (Sigma), or 10 μM Forskolin (Sigma) as indicated.

[3] = tested on: U87 glioblastoma cells; assay: Viable cell number by trypan blue exclusion, U87 cells; format: cell-based, human; conditions: CXCL12 1 μg/ml
Method: Brain tumor cell cultures. Cells were cultured in αMEM (Invitrogen, Carlsbad, Calif.) supplemented with 10% FCS (Biomedia, Foster City, Calif.) in the presence of penicillin streptomycin at 37° C. with 5% CO2.
as §1

[4] = tested on: Nf1−/− astrocytes; assay: Cell number by trypan blue exclusion, Nf1−/− astrocytes; format: cell-based, mouse; conditions: CXCL12 0.1 ug/ml (≈10 nM), 24 hours, vs untreated controls
Method: Culture and treatment of primary astrocytes. Primary cultures of astrocytes were prepared from post-natal day two Nf1^flox/flox mice as previously described (134) and in accordance with established Animal Studies Protocols at Washington University School of Medicine. Cultures were infected with adenovirus containing either Cre recombinase (Nf1−/−) or LacZ (Nf1+/+). Primary cultures of astrocytes were grown under standard adherent conditions in serum free media (DMEM/F12 or Neurobasal (Gibco-BRL)) in the presence or absence of 0.1 μg/ml CXCL12 (Peprotech) and 10 μM Forskolin for 24 hours, as indicated. Cell number was determined after 24 hours by trypan blue exclusion and the growth effects of CXCL12 were derived as follows: ((cell number in the presence of CXCL12—cell number cell in the absence of CXCL12)/cell number in the absence of CXCL12)×100.)
To determine the biological significance of CXCR4 activation to NF1 glioma biology, we next sought to evaluate the regulation of CXCL12 growth effects by neurofibromin in astrocytes. While the true cell of origin of astrocytomas remains unknown, we utilized primary cultures of cortical astrocytes as a model of a normal counterpart to astrocytoma cells. Astrocytes were derived from Nf1^flox/flox mice and rendered Nf1+/+ or Nf1−/− by infection with adenovirus encoding LacZ or Cre recombinase, respectively.

[5] = target: T1, CXCR4 (Mus musculus, UniProt P70658); assay: CXCL12-induced CXCR4 phosphorylation (pCXCR4 western blot), wild-type (Nf1+/+) astrocytes; format: cell-based; conditions: CXCL12 0.1 μg/ml, at 5 minutes
T1 construct: endogenous in cells; host or cells: primary mouse astrocytes (Nf1 flox/flox, infected with Ad-LacZ or Ad-Cre)
T1 sequence (P70658 whole entry): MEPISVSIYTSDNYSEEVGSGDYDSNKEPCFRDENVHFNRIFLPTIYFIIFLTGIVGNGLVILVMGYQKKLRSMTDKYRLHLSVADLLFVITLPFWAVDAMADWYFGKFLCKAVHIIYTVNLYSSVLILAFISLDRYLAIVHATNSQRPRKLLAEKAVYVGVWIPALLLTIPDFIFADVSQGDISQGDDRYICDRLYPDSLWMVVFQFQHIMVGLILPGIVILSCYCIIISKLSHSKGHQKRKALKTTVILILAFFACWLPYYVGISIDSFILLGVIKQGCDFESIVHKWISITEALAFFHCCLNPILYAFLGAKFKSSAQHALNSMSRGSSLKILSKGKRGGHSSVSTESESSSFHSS
Method: Western Blot Analysis. Whole-cell extracts were obtained by lysing cells with lysis buffer (20 mM Tris pH 7.4, 137 mM NaCl, 10% Glycerol and 1% Triton-X-100) supplemented with phosphatase inhibitor cocktail set II (Calbiochem, La Jolla, Calif.), PMSF (1 mM), leupeptin, (0.005 mg/ml) and aprotinin (0.005 mg/ml). The proteins were resolved with 10% Bis-Tris gels (Invitrogen) and transferred onto the nitrocellulose membrane Hybond ECL (Amersham, Piscataway, N.J.) according to standard protocols. Membranes were incubated with polyclonal antibodies CXCR4 (1:500), pErk½ (1:1200), pan Erk½ (1:150), pAkt (1:500), pan Akt (1:1000), pGRK2 (1:250), and pCXCR4 (1:200) overnight at 4° C. This was followed by incubation with horseradish peroxidase-conjugated secondary antibody (1:15,000; Bio-Rad). Peroxide activity was detected using the enhanced chemiluminescence Supersignal West Dura system (Pierce, Rockford, Ill.) Mouse anti-actin antibody was used as a loading control. Quantitation of western blots was performed by densitometry using Image J software from the NIH.
Among the primary mechanisms for controlling GPCR effects on cAMP production is receptor desensitization (140). This process is initiated when ligand occupied GPCR (e.g., CXCR4) is phosphorylated by G protein receptor kinase (GRK). […]

increase in pCXCR4 [5]: 2.6+/−0.06 fold
Substance: CXCL12: chemokine ligand of CXCR4 (Peprotech)
integrated area under the cAMP curve [1]: 2.70
intracellular cAMP, lower level of oscillation [1]: 40 % of baseline
effect on cell number [2]: tended to decrease
increase in cell number [3]: greater than 2 fold
increase in cell number ([3]; serum-free): greater than 200%
increase in cell number [4]: ~14+/−2%
